Experimental data taken from US9469665B2, “Compound having lysophosphatidylserine receptor function modulation activity” (THE UNIVERSITY OF TOKYO, priority 2013, dated 2016).

Tests used:
Assay type in all cases: cell-based
[1] = target: T1, mouse P2Y10 (Mus musculus, UniProt Q8BFU7); experiment: TGFα shedding assay, agonistic activity on P2Y10; set-up: key: an activity that is 100 folds that of control compound 1 as +++++; an activity that is 10 folds that of control compound 1 as ++++; the activity of the control compound 1 (LPS18:1) as +++; an activity that is 1/10 as ++; an activity that is 1/100 as +; an activity below that as −; settings: HEK293 cells transfected with mouse P2Y10 and AP labeled TGFα; activity relative to control compound 1 (LPS18:1) = +++
T1 construct: expressed in transfected cells; host or cells: HEK293
Protocol: (§1) [Test Example 1]Assay of Agonistic Activity by TGFα Shedding Assay
(§2) HEK293 cells were suspended in the Dulbecco's modified Eagle's medium (DMEM) containing 10% fetal bovine serum (FCS) to exist in an amount of 2.0×10^5 cells/mL, and they were seeded in 60 mm dishes at 4 mL per dish. Transfection of different expression vectors was performed using LipofectAMINE 2000 (Invitrogen) after 24 hours of culture under the presence of 5% CO2. For each 60 mm dish, 1 μg of AP labeled TGFα plasmid vectors were used, and 1 μg of pCAGGS plasmid vectors of mouse GPR34, P2Y10 or GPR174 were used. The plasmid vectors were prepared by methods disclosed in Patent Documents 2 and 5. Note that the AP labeled TGFα is a protein comprising a membrane-bound pro-TGFα whose N terminal end is fused with human placental alkaline phosphatase, and the plasmid vector of the AP labeled TGFα may be produced based on the teaching of Tokumaru et al., J Cell Biol 151, 209-220 (2000). After 24 hours of transfection, the cells were peeled off using trypsin/EDTA, and they were re-suspended in a culture medium to form an amount of 2.0×10^4 cells/well to be seeded to a 96-well plate. Hanks' Balanced Salt Solution (HBSS, containing 5 mM HEPES) was used for the re-suspended solution when stimulating with the compound. After it was left still for 30 min., subject compounds of various concentrations were added and the solutions were left still for another 1 hour under the presence of 5% CO2. The 96-well plate was subjected to centrifugation (190×g, 3 min.), then 80 μl of supernatant was transferred to a different 96-well plate. A reaction buffer (40 mM Tris-HCl (pH 9.5)) containing 10 mM p-nitrophenyl phosphate (p-NPP) was added in an amount of 80 μL to the supernatant and cells. The OD405 was measured with a micro plate reader (background), then after heating at 37° C. for an hour, OD405 was re-measured. The AP activity for each well was obtained by subtracting the background from the second absorbance and plugging the difference into the following formula.
(§3) In addition, the value obtained by subtracting the AP activity (%) of the non-stimulated group was used in the vertical axis to create a graph. The graphs of the test results for Example 3 (lysoPS sn-1-deoxy sn3 C3-ph-o-OBn-m-Oph) and Example 31 (lysoPS sn-1-OMe sn3 C3-ph-o-OBn-m-Oph) are shown in FIG. 1.
(§4) The obtained activity is shown by plotting the compound concentration and AP activity (%), then representing the activity of the control compound 1 (LPS18:1) as +++, an activity that is 10 folds that of control compound 1 as ++++, an activity that is 100 folds that of control compound 1 as +++++, an activity that is 1/10 as ++, and an activity that is 1/100 as +, and an activity below that as −.

[2] = target: T2, mouse GPR34 (Mus musculus, UniProt Q9R1K6); experiment: TGFα shedding assay, agonistic activity on GPR34; set-up: key to GPR34/LPS2 agonistic activity, TGFα shedding assay: an activity that is 100 folds that of control compound 1 as +++++; an activity that is 10 folds that of control compound 1 as ++++; the activity of the control compound 1 (LPS18:1) as +++; an activity that is 1/10 as ++; an activity that is 1/100 as +; an activity below that as −; settings: for GPR34/LPS2 agonistic activity, TGFα shedding assay: HEK293 cells transfected with mouse GPR34 and AP labeled TGFα, activity relative to control compound 1 (LPS18:1) = +++
T2 construct: expressed in transfected cells; host or cells: HEK293
Protocol: as §1, §2, §3, §4

[3] = target: T3, mouse GPR174 (Mus musculus, UniProt Q3U507); experiment: TGFα shedding assay, agonistic activity on GPR174; set-up: key: an activity that is 100 folds that of control compound 1 as +++++; an activity that is 10 folds that of control compound 1 as ++++; the activity of the control compound 1 (LPS18:1) as +++; an activity that is 1/10 as ++; an activity that is 1/100 as +; an activity below that as −; settings: HEK293 cells transfected with mouse GPR174 and AP labeled TGFα; activity relative to control compound 1 (LPS18:1) = +++
T3 construct: expressed in transfected cells; host or cells: HEK293
Protocol: as §1, §2, §3, §4

T3 sequence (Q3U507 whole entry): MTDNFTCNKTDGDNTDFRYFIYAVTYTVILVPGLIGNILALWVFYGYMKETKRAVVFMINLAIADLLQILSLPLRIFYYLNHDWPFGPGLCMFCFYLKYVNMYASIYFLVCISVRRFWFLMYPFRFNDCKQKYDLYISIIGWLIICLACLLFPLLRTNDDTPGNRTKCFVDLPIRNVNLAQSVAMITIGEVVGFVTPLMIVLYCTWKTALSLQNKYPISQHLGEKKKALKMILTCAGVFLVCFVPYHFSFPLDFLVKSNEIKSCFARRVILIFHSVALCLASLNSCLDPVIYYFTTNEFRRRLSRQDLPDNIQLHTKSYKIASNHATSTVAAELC
T1 sequence (Q8BFU7 whole entry): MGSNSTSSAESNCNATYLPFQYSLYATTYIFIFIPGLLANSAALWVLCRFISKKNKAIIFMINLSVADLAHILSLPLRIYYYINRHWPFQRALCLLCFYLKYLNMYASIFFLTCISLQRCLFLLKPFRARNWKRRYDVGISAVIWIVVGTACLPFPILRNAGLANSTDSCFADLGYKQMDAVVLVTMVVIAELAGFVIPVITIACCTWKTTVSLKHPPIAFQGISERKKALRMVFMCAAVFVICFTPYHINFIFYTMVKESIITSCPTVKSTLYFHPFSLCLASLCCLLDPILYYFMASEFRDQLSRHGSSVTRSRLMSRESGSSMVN
T2 sequence (Q9R1K6 whole entry): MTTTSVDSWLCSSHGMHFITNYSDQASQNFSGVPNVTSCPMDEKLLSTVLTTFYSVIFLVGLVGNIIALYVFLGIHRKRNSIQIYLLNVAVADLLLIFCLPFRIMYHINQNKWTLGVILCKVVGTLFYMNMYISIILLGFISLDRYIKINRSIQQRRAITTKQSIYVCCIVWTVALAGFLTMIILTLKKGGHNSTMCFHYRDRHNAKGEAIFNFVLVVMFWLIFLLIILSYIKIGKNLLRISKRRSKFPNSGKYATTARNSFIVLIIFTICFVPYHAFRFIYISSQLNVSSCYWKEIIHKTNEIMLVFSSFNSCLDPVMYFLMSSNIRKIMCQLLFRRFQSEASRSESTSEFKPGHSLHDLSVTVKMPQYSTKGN

| SMILES | P2Y10/LPS2 agonistic activity, TGFα shedding assay [1] | GPR34/LPS2 agonistic activity, TGFα shedding assay [2] | GPR174/LPS3 agonistic activity, TGFα shedding assay [3] | receptor selectivity of agonist activity among GPR34, P2Y10, GPR174 (graphs of FIG. 1) ([2]; TGFα shedding assay, HEK293 cells, AP activity (%) vs concentration) |
| --- | --- | --- | --- | --- |
| CCCCCCCC/C=C\CCCCCCCC(=O)OC[C@@H](C)OP(=O)(O)OC[C@H](N)C(=O)O [Example 1, (9Z)-Octadeca-9-enoic acid (2R)-2-[((2S)-2-amino-2-carboxy-ethoxy)-hydroxy-phosphoryloxy]-propyl ester] | ++ | ++++ | +~++ |  |
| CCCCCCCC/C=C\CCCCCCCC(=O)OC[C@H](C)OP(=O)(O)OC[C@H](N)C(=O)O [Example 2, (9Z)-Octadeca-9-enoic acid (2S)-2-[((2S)-2-amino-2-carboxy-ethoxy)-hydroxy-phosphoryloxy]-propyl ester] | ++~+++ | +++ | +~++ |  |
| C[C@H](COC(=O)CCc1ccccc1OCc1cccc(Oc2ccccc2)c1)OP(=O)(O)OC[C@H](N)C(=O)O [Example 3, (2S)-2-amino-3-[hydroxyl-((1R)-1-methyl-2-{3-[2-(3-phenoxy-benzyloxy)-phenyl]-propionyloxy}-ethoxy)-phosphoryloxy]-propionic acid] | ++ | +++++ | − | agonists having selectivity against GPR34 |
| CCCCCCCC/C=C\CCCCCCCC(=O)OC[C@H](COC)OP(=O)(O)OC[C@H](N)C(=O)O [Example 5, (9Z)-Octadeca-9-enoic acid (2S)-2-[((2S)-2-amino-2-carboxy-ethoxy)-hydroxy-phosphoryloxy]-3-methoxy-propyl ester] | + | ++ | − |  |
| CCCCCCCC/C=C\CCCCCCCC(=O)OC[C@@H](COCc1ccccc1)OP(=O)(O)OC[C@H](N)C(=O)O [Example 7, (9Z)-Octadeca-9-enoic acid (2R)-2-[((2S)-2-amino-2-carboxy-ethoxy)-hydroxy-phosphoryloxy]-3-benzyloxy-propyl ester] | − | ++ | − |  |
| CCCCCCCCCCCOc1ccccc1CCC(=O)O[C@@H]1COCC[C@H]1OP(=O)(O)OC[C@H](N)C(=O)O [Example 9, (2S)-2-amino-3-(hydroxyl-{(3R,4R)-3-[3-(2-undecyloxy-phenyl)-propionyloxy]-tetrahydropyran-4-yloxy}-phosphoryloxy)-propionic acid] | ++~+++ | ++++~+++++ | − |  |
| CCCCCCCCCCCOc1ccccc1CCC(=O)O[C@H]1COCC[C@@H]1OP(=O)(O)OC[C@H](N)C(=O)O [Example 11, (2S)-2-amino-3-(hydroxy-{(3S,4S)-3-[3-(2-undecyloxy-phenyl)-propionyloxy]-tetrahydro-pyran-4-yloxy}-phosphoryloxy)-propionic acid] | ++ | − | − |  |
| CCCCCCCCCCCOc1ccc(C(C)(C)C)cc1CCC(=O)O[C@H]1COCC[C@@H]1OP(=O)(O)OC[C@H](N)C(=O)O [Example 12, (2S)-2-amino-3-({(3S,4S)-3-[3-(5-tert-butyl-2-undecyloxy-phenyl)-propionyloxy]-tetrahydro-pyran-4-yloxy}-hydroxy-phosphoryloxy)-propionic acid] | + | − | − |  |
| N[C@@H](COP(=O)(O)OC[C@H]1OCCC[C@@H]1OC(=O)CCc1ccccc1OCc1cccc(Oc2ccccc2)c1)C(=O)O [Example 13, (2S)-2-amino-3-[hydroxyl-((2R,3S)-3-{3-[2-(3-phenoxy-benzyloxy)-phenyl]-propionyloxy}-tetrahydro-pyran-2-ylmethoxy)-phosphoryloxy]-propionic acid] | −~+ | ++ | − |  |
| CCCCCCCCCCCOc1ccccc1CCC(=O)O[C@H]1CCCO[C@@H]1COP(=O)(O)OC[C@H](N)C(=O)O [Example 14, (2S)-2-amino-3-(hydroxy-{(2R,3S)-3-[3-(2-undecyloxy-phenyl)-propionyloxy]-tetrahydro-pyran-2-ylmethoxy}-phosphoryloxy)-propionic acid] | + | − | − |  |

More lines, main results first:

| P2Y10/LPS2 agonistic activity, TGFα shedding assay [1] | GPR34/LPS2 agonistic activity, TGFα shedding assay [2] | GPR174/LPS3 agonistic activity, TGFα shedding assay [3] | SMILES | receptor selectivity of agonist activity among GPR34, P2Y10, GPR174 (graphs of FIG. 1) ([2]; TGFα shedding assay, HEK293 cells, AP activity (%) vs concentration) |
| --- | --- | --- | --- | --- |
| + | ++++ | − | CCCCCCCC/C=C\CCCCCCCC(=O)OC[C@@H](COC)OP(=O)(O)OC[C@H](N)C(=O)O [Example 4, (9Z)-Octadeca-9-enoic acid (2R)-2-[((2S)-2-amino-2-carboxy-ethoxy)-hydroxy-phosphoryloxy]-3-methoxy-propyl ester] |  |
| + | +++++ | − | CCCCCCCC/C=C\CCCCCCCC(=O)OC[C@@H](COCC)OP(=O)(O)OC[C@H](N)C(=O)O [Example 6, (9Z)-Octadeca-9-enoic acid (2R)-2-[((2S)-2-amino-2-carboxy-ethoxy)-hydroxy-phosphoryloxy]-3-ethoxypropyl ester] |  |
| +++ | +++~++++ | − | CCCCCCCCCCCOc1ccccc1CCC(=O)O[C@@H]1CCOC[C@H]1OP(=O)(O)OC[C@H](N)C(=O)O [Example 8, (2S)-2-amino-3-((3R,4R)-hydroxy-{4-[3-(2-undecyloxy-phenyl)-propionyloxy]-tetrahydro-pyran-3-yloxy}-phosphoryloxy)-propionic acid] |  |
| ++~+++ | − | − | CCCCCCCCCCCOc1ccccc1CCC(=O)O[C@H]1CCOC[C@@H]1OP(=O)(O)OC[C@H](N)C(=O)O [Example 10, (2S)-2-amino-3-(hydroxy-{(3S,4S)-4-[3-(2-undecyloxy-phenyl)-propionyloxy]-tetrahydro-pyran-3-yloxy}-phosphoryloxy)-propionic acid] |  |
| − | ++ | − | CCCCCCCC/C=C\CCCCCCCC(=O)OC[C@H]1OCCC[C@H]1OP(=O)(O)OC[C@H](N)C(=O)O [Example 15, (9Z)-Octadeca-9-enoic acid (2R,3R)-3-[((2S)-2-amino-2-carboxy-ethoxy)-hydroxy-phosphoryloxy]-tetrahydropyran-2-ylmethyl ester] |  |
